Like-named read-outs stand apart in the source and are kept apart here.

Test [1] has as its target T1, ROCK2 (Homo sapiens (Human), UniProt O75116). Kind of test: Z-Lyte FRET kinase assay, ROCK2. In kind it is biochemical. The following applies: triplicate experiments. From the text: (§1) Kinase Assay. A robust FRET-based, enzyme-coupled assay format, Z-Lyte® Kinase Assay Ser/[…] Peptide Kit (Invitrogen, cat. PV3793), was employed in this study to monitor inhibition of ROCK1 (Invitrogen, cat. PV3691) and ROCK2 (Invitrogen, cat. PV3759) enzyme activities. […] The substrate contains both coumarin and fluorescein and only uncleaved […] substrate will undergo FRET. […] A known inhibitor, Y-27632 (Tocris Bioscience, cat. 1254), is used as a control compound.

Test [2] addresses ROCK1 (Homo sapiens (Human), UniProt Q13464). The test is described as follows: Z-Lyte FRET kinase assay, ROCK1. In kind it is biochemical. The following applies: triplicate experiments.
Text: as §1

For test [3], the target named is T1, ROCK2. The following applies: different assay conditions; read-out: ROCK 2 IC50 (previously reported); cited from earlier work.

T1 sequence (O75116 whole entry, species assumed): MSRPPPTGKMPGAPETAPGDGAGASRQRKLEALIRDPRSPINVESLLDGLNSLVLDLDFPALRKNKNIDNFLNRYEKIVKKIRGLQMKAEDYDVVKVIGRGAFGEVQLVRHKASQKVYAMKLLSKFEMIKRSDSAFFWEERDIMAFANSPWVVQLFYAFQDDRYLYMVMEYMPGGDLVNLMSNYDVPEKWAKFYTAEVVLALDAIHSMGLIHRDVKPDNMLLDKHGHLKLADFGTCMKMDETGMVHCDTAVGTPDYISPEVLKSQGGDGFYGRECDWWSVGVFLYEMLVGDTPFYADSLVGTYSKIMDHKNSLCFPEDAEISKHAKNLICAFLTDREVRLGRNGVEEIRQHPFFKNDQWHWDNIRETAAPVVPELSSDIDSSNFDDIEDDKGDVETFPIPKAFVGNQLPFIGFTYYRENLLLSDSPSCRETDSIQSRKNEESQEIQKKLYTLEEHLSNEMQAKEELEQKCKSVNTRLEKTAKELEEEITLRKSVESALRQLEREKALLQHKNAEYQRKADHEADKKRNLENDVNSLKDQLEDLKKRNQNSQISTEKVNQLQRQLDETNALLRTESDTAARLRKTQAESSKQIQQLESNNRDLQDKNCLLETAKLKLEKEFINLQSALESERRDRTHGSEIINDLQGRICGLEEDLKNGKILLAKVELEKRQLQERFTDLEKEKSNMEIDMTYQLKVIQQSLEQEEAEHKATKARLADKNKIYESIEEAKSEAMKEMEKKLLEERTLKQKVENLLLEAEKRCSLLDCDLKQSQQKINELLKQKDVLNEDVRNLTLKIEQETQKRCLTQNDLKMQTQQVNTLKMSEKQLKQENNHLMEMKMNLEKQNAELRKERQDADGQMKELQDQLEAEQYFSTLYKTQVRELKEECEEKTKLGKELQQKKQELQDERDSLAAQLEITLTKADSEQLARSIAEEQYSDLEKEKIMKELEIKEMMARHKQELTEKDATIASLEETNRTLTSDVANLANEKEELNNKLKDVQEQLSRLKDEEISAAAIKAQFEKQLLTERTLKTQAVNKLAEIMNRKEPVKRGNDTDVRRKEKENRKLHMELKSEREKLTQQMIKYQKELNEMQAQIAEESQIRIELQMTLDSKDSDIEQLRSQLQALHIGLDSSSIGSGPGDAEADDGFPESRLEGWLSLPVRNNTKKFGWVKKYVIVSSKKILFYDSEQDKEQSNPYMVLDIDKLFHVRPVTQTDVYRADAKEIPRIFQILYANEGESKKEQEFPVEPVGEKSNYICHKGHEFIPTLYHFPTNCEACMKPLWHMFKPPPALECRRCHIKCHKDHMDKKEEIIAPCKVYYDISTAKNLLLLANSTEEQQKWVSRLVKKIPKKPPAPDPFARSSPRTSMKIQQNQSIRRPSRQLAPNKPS
ROCK1, sequence (Q13464 whole entry): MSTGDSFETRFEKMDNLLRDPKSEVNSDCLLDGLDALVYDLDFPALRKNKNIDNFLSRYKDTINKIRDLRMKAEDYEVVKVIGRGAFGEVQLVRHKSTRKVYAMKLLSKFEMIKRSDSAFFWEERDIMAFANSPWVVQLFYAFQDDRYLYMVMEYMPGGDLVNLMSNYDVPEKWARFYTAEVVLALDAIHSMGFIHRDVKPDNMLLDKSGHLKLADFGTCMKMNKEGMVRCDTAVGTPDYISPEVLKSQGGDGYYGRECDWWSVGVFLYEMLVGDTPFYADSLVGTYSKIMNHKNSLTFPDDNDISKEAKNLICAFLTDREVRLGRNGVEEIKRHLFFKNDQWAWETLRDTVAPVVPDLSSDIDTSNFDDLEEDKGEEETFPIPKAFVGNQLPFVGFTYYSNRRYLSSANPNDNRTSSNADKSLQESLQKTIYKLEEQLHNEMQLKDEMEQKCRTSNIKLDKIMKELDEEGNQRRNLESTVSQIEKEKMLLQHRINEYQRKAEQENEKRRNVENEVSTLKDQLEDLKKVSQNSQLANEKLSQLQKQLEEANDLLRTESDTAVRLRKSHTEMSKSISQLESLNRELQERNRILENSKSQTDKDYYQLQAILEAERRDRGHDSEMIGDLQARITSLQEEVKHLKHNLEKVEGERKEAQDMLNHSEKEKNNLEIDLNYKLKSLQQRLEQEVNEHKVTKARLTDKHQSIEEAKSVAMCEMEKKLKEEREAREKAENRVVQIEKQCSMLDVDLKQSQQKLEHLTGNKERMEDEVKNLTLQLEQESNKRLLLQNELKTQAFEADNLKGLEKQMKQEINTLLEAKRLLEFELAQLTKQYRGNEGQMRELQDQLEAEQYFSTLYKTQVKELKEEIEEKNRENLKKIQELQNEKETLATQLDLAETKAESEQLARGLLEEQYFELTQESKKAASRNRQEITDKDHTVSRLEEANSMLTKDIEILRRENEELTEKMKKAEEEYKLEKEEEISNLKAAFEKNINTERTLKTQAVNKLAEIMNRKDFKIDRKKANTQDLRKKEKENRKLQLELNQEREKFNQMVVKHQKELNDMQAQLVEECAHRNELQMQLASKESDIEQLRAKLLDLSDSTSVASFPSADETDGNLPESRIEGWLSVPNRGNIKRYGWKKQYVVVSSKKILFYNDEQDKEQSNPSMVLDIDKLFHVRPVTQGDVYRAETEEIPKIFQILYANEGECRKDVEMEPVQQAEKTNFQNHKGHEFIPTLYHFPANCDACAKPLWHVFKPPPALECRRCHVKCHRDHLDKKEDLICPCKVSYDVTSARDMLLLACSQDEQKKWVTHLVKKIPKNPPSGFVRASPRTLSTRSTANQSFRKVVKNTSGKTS

By IC50 is commonly meant the concentration that inhibits the measured activity by half. As to `O=C(NCc1ccccc1)Nc1ccc2[nH]ncc2c1` [Compound 12, 1-Benzyl-3-(1H-indazol-5-yl)urea], the concentration for half-maximal inhibition (IC50) was 5.5 ± 3.1 µM in test [1], 14 µM in test [2] and 0.26 µM in test [3].

Source of the values: patent US9409868B2, “Inhibitors of rho associated protein kinases (ROCK) and methods of use” (H. LEE MOFFITT CANCER CENTER AND RESEARCH INSTITUTE, INC., priority 2012, dated 2016).
